Assay results published in PMC9978856 (Acta Pharmaceutica Sinica. B, 2022).
Values belong to the compound of their own block, whether it stands above or below them.

Experiments:
CES1 = conditions: cited from earlier work
[1] = tested on: food-borne hypercholesteremia rat model; assay: Lan treatment in food-borne hypercholesteremia rat model; assay type: in vivo
Ldlr KO rats = assay: Lan treatment of Ldlr KO rats; assay type: in vivo, rat; conditions: Lan 50 mg/kg/day p.o. for 21 days
CYP1A [2] = conditions: Lan 50 mg/kg/day for 7 days; cited from earlier work
[3] = CYP1A1/2 KO compared with WT group; caffeine 5 mg/kg by gavage
CYP1A [4] = tested on: CYP1A
[5] = HCD + Lan 10 group (10 mg/kg/day, 11 weeks) vs HCD + Sol group
[6] = HCD + Lan 50 group (50 mg/kg/day, 11 weeks) vs HCD + Sol group
[7] = RLM of KO rats compared with WT rats

SMILES: CC(C)CCC[C@@H](C)[C@H]1CC[C@H]2[C@@H]3CC=C4C[C@@H](O)CC[C@]4(C)[C@H]3CC[C@]12C [cholesterol]
inhibitory effect on CES1 (CES1): no inhibitory effect

SMILES: C[C@@H](CO)CCC[C@@H](C)[C@H]1CC[C@H]2[C@@H]3CC=C4C[C@@H](O)CC[C@]4(C)[C@H]3CC[C@]12C [27-hydroxycholesterol]
inhibitory effect on CES1 (CES1): strong selective inhibitory effect

CYP1A protein expression in the liver (Ldlr KO rats; Western blot): significantly induced
SMILES: Cc1c(OCC(F)(F)F)ccnc1C[S+]([O-])c1nc2ccccc2[nH]1 (centres unmarked) [Lan, Lansoprazole]
decrease of serum LDL-C content [1, 5]: 40%
decrease of serum TG concentration [1, 5]: 27%
increase of HDL-C/LDL-C ratio [1, 5]: 170%
reduction of serum T-C content [1, 5]: 39%
decrease of serum LDL-C content [1, 6]: 65%
decrease of serum TG concentration [1, 6]: 42%
increase of HDL-C/LDL-C ratio [1, 6]: 200%
reduction of serum T-C content [1, 6]: 47%
serum transaminases ([1]; HCD-fed rats, Lan treatment, 11 weeks): reduced serum transaminases to physiological levels
lipid accumulation in liver (oil red O staining) ([1]; both 10 and 50 mg/kg Lan groups vs HCD + Sol group, 11 weeks): less than that in the HCD + Sol group
lipids in serum, including TG, LDL-C, HDL-C, and T-C (Ldlr KO rats): remained unchanged
liver lipidosis (HE staining) (Ldlr KO rats): significantly alleviated
increase of the metabolic activity of CYP1A in rats (CYP1A [2]): 4 times

increase of AUC of caffeine [3]: 200%
Km of caffeine metabolism in RLM (CYP1A [4]; KO versus WT rats RLM): remained unchanged
decrease of CLint of caffeine (CYP1A [4]; [7]): 50%
decrease of Vmax of 3-demethylation caffeine formation (CYP1A [4]; [7]): 38%
SMILES: Cn1c(=O)c2c(ncn2C)n(C)c1=O [caffeine]
